The target of one experiment is human autoBACE-2 (Homo sapiens (Human), UniProt Q9Y5Z0). As to the kind of experiment: BACE-2 assay (BACE-HTRF, time-resolved endpoint proteolysis). It is filed as biochemical. Conditions: Ki calculated from IC50 using the Cheng-Prusoff equation; read-out: BACE2 Ki. As for the experimental part: Inhibitor IC50s at purified human autoBACE-2 are determined in a time-resolved endpoint proteolysis assay that measures hydrolysis of the QSY7-[…]-Eu-amide FRET peptide substrate (BACE-HTRF assay). […] DMSO is present at 5% final concentration in the assay. Following laser excitation of sample wells at 320 nm, the fluorescence signal at 620 nm is collected for 400 ms following a 50 μs delay on a RUBYstar HTRF plate reader (BMG Labtechnologies). Raw RFU data is normalized to maximum (1.0 nM BACE/DMSO) and minimum (no enzyme/DMSO) RFU values. […] The Ki values are calculated from the IC50 using the Cheng-Prusoff equation.
human autoBACE-2, sequence (Q9Y5Z0 63-473 limits assumed): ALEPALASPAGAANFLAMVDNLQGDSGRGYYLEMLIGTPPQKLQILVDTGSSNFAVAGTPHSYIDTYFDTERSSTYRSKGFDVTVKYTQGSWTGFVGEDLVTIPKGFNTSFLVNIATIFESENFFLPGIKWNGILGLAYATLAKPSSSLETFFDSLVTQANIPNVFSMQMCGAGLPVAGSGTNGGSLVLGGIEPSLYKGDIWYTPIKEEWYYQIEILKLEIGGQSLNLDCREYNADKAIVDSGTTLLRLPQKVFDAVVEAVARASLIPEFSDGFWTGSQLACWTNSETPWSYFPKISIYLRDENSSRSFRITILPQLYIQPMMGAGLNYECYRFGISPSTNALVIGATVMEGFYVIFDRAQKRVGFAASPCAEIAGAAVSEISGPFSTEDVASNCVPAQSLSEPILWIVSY

For experiment [1], the target named is soluble human BACE1 catalytic domain (Homo sapiens (Human), UniProt P56817). As to the kind of experiment: BACE1 HTRF FRET assay. It is filed as biochemical. As to conditions: Ki calculated from IC50 using the Cheng-Prusoff equation. From the text: Na^+-Acetate pH 5.0; 1% Brij-35; Glycerol; Dimethyl Sulfoxide (DMSO); Recombinant human soluble BACE1 catalytic domain (>95% pure); APP Swedish mutant peptide substrate (QSY7-APP^swe-Eu): QSY7-[…]-Europium-amide.
soluble human BACE1 catalytic domain, sequence (P56817 75-416): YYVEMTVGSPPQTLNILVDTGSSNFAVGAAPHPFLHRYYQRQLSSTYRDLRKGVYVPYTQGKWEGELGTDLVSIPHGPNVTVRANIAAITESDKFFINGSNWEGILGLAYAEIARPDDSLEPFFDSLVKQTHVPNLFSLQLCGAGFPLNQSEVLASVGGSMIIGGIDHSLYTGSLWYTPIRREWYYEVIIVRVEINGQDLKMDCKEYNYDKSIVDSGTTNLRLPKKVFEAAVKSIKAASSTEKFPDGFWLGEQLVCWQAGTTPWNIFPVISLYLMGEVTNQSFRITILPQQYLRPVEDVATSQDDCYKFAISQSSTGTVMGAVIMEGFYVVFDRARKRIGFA
A homogeneous time-resolved FRET assay can be used to determine IC50 values for inhibitors of the soluble human BACE1 catalytic domain. This assay monitors the increase of 620 nm fluorescence that resulted from BACE1 cleavage of an APPswedish APP^swe mutant peptide FRET substrate (QSY7-[…]-Europium-amide). This substrate contains an N-terminal QSY7 moiety that serves as a quencher of the C-terminal Europium fluorophore (620 nm Em). In the absence of enzyme activity, 620 nm fluorescence is low in the assay and increased linearly over 3 hours in the presence of uninhibited BACE1 enzyme Inhibition of BACE1 cleavage of the QSY7-APP^swe-Eu substrate by inhibitors is manifested as a suppression of 620 nm fluorescence.
Varying concentrations of inhibitors at 3× the final desired concentration in a volume of 10 ul are preincubated with purified human BACE1 catalytic domain (3 nM in 10 μl) for 30 minutes at 30° C. in reaction buffer containing 20 mM Na-Acetate pH 5.0, 10% glycerol, 0.1% Brij-35 and 7.5% DSMO. Reactions are initiated by addition of 10 μl of 600 nM QSY7-APP^swe-Eu substrate (200 nM final) to give a final reaction volume of […] in a 384 well Nunc HTRF plate. The reactions are incubated at 30° C. for 1.5 hours. The 620 nm fluorescence is then read on a Rubystar HTRF plate reader (BMG Labtechnologies) using a 50 millisecond delay followed by a 400 millisecond acquisition time window. Inhibitor IC50 values are derived from non-linear regression analysis of concentration response curves.

Broadly, the Ki is a measure of affinity in units of concentration, obtained from inhibition or displacement. Regarding `CN1C(=N)N[C@](C)(c2sc(-c3cc(-c4nnco4)ncc3F)cc2Cl)CS1(=O)=O` [Example 58], the Ki was 66 nM on human autoBACE-2 and 68.3 nM in experiment [1].
In the same order, the values of `CN1C(=N)N[C@](C)(c2sc(-c3cc(-c4nnco4)ncc3F)cc2F)CS1(=O)=O` [Example 59] are 92 nM and 107 nM.
The corresponding values for `CN1C(=N)N[C@](C)(c2sc(-c3cccc(-n4cccn4)c3)cc2Cl)CS1(=O)=O` [Example 60] are 1.6 nM and 57 nM.
In the same order, the values of `CN1C(=N)N[C@](C)(c2sc(-c3cccc(N4CCS(=O)(=O)CC4)c3)cc2Cl)CS1(=O)=O` [Example 61] are 42 nM and 693 nM.
In the case of `CN1C(=N)N[C@](C)(c2sc(-c3cccc(-c4ccccc4)c3)cc2Cl)CS1(=O)=O` [Example 62], the Ki at human autoBACE-2 was 1.6 nM; in experiment [1] it was 161 nM.
For `CN1C(=N)N[C@](C)(c2sc(-c3cccc(-n4nccn4)c3)cc2Cl)CS1(=O)=O` [Example 63], the Ki is 4.7 nM on human autoBACE-2 and 30.3 nM in experiment [1].
The corresponding values for `CN1C(=N)N[C@](C)(c2sc(-c3ccc(-c4cccnc4)cc3)cc2Cl)CS1(=O)=O` [Example 64] are 1040 nM and 2100 nM.
The corresponding values for `CN1C(=N)N[C@](C)(c2sc(-c3ccc(-c4ccccn4)cc3)cc2Cl)CS1(=O)=O` [Example 65] are 1610 nM and 3520 nM.
The corresponding values for `CN1C(=N)N[C@](C)(c2sc(-c3ccc(N4CCOCC4)nc3)cc2Cl)CS1(=O)=O` [Example 66] are 1800 nM and 5900 nM.
Turning to `CN1C(=N)N[C@](C)(c2sc(-c3ccc(-n4nccn4)cc3)cc2Cl)CS1(=O)=O` [Example 67], the Ki on human autoBACE-2 was 555 nM; in experiment [1] it was 2260 nM.
In the same order, the values of `CN1C(=N)N[C@](C)(c2sc(-c3cccc(-n4ccnc4)n3)cc2Cl)CS1(=O)=O` [Example 68] are 77 nM and 429 nM.
Take `CN1C(=N)N[C@](C)(c2sc(-c3ccc(-c4ncco4)cc3)cc2Cl)CS1(=O)=O` [Example 69]: the values for the Ki (on human autoBACE-2; in experiment [1]) were 337 nM and 4230 nM, respectively.
In the same order, the values of `CN1C(=N)N[C@](C)(c2sc(-c3ccc(-c4nccs4)cc3)cc2Cl)CS1(=O)=O` [Example 70] are 174 nM and 827 nM.
The corresponding values for `CN1C(=N)N[C@](C)(c2sc(-c3ccc(-n4ccnn4)cc3)cc2Cl)CS1(=O)=O` [Example 71] are 654 nM and 1600 nM.
With `Cc1cn(-c2cc(-c3cc(F)c([C@]4(C)CS(=O)(=O)N(C)C(=N)N4)s3)ccn2)cn1` [Example 72], the results for the Ki (on human autoBACE-2; in experiment [1]) were 26 nM and 67.2 nM, respectively.
The corresponding values for `CN1C(=N)N[C@](C)(c2sc(-c3ccnc(-c4ccncc4)c3)cc2F)CS1(=O)=O` [Example 73] are 123 nM and 338 nM.
Consider `CN1C(=N)N[C@](C)(c2sc(-c3ccnc(-c4cccnc4)c3)cc2F)CS1(=O)=O` [Example 74], for which the Ki at human autoBACE-2 is 122 nM; in experiment [1] it was 199 nM.
In the same order, the values of `Cc1cnn(-c2cc(-c3cc(F)c([C@]4(C)CS(=O)(=O)N(C)C(=N)N4)s3)ccn2)c1` [Example 75] are 2530 nM and 2780 nM.
In the same order, the values of `CN1C(=N)N[C@](C)(c2sc(-c3ccnc(-n4ccnc4)c3)cc2F)CS1(=O)=O` [Example 76] are 52 nM and 112 nM.
In the same order, the values of `CN1C(=N)N[C@](C)(c2sc(-c3ccnc(-n4cccn4)c3)cc2F)CS1(=O)=O` [Example 77] are 69 nM and 162 nM.
As to `CN1C(=N)N[C@](C)(c2sc3c(-c4cnc(C5CC5)nc4)nccc3c2Cl)CS1(=O)=O` [Example 78], the values for the Ki (at human autoBACE-2; in experiment [1]) were 23 nM and 162 nM, respectively.
For `CN1C(=N)N[C@](C)(c2sc3c(-c4ccc(C5CC5)nc4)nccc3c2Cl)CS1(=O)=O` [Example 79], the Ki at human autoBACE-2 was 22 nM; in experiment [1], 282 nM.
In the same order, the values of `CN1C(=N)N[C@](C)(c2sc3c(-c4ccc(C5CC(=O)N5)cc4)cccc3c2F)CS1(=O)=O` (stereo partly drawn) [Example 81] are 1720 nM and 184 nM.
In the same order, the values of `CN1C(=N)N[C@](C)(c2sc3c(-c4ccc(-c5ccc(F)cc5F)nc4)cccc3c2F)CS1(=O)=O` [Example 82] are 61 nM and 93 nM.
The corresponding values for `CN1C(=N)N[C@](C)(c2sc3c(-c4ccc(-n5ccnn5)cc4)cccc3c2F)CS1(=O)=O` [Example 83] are 148 nM and 19 nM.
Take `CN1C(=N)N[C@](C)(c2sc3c(-c4ccc(-c5ccncc5)cc4)cccc3c2F)CS1(=O)=O` [Example 84]: the values for the Ki (on human autoBACE-2; in experiment [1]) were 764 nM and 351 nM, respectively.
The corresponding values for `CN1C(=N)N[C@](C)(c2sc3c(-c4ccc(N5CCS(=O)(=O)CC5)cc4)cccc3c2F)CS1(=O)=O` [Example 85] are 4690 nM and 6520 nM.
The corresponding values for `CN1C(=N)N[C@](C)(c2sc3c(-c4ccc(-c5nccn5C)cc4)cccc3c2F)CS1(=O)=O` [Example 86] are 3300 nM and 5620 nM.
In the same order, the values of `CN1C(=N)N[C@](C)(c2sc3c(-c4ccc(-n5cccn5)nc4)cccc3c2F)CS1(=O)=O` [Example 87] are 31 nM and 10 nM.
For the compound `Cc1cnc(-c2ccc(-c3cccc4c(F)c([C@]5(C)CS(=O)(=O)N(C)C(=N)N5)sc34)cc2)nc1` [Example 88], the results for the Ki (on human autoBACE-2; in experiment [1]) were 3840 nM and 9140 nM, respectively.
In the same order, the values of `CN1C(=N)N[C@](C)(c2sc3c(-c4ccc(-n5cccn5)cc4)cccc3c2F)CS1(=O)=O` [Example 89] are 68 nM and 37 nM.
In the same order, the values of `CN1C(=N)N[C@](C)(c2sc3c(-c4ccc(-c5ncco5)cc4)cccc3c2F)CS1(=O)=O` [Example 90] are 214 nM and 104 nM.
In the same order, the values of `CN1C(=N)N[C@](C)(c2sc3c(-c4ccc(-c5nccs5)cc4)cccc3c2F)CS1(=O)=O` [Example 91] are 1350 nM and 797 nM.
Consider `CN1C(=N)N[C@](C)(c2sc3c(-c4ccc(-n5nccn5)cc4)cccc3c2F)CS1(=O)=O` [Example 92], for which the Ki (at human autoBACE-2; in experiment [1]) was 1660 nM throughout.
As for `CN1CCN(c2ccc(-c3cccc4c(F)c([C@]5(C)CS(=O)(=O)N(C)C(=N)N5)sc34)cn2)CC1` [Example 93], the figures for the inhibition constant Ki (at human autoBACE-2; in experiment [1]) were 2660 nM and 3840 nM, respectively.
In the case of `CN1C(=N)N[C@](C)(c2sc3c(-c4ccc(N5CCOCC5)nc4)cccc3c2F)CS1(=O)=O` [Example 94], the Ki is 9520 nM at human autoBACE-2 and 1500 nM in experiment [1].
In the same order, the values of `CN1CCN(c2ccc(-c3cccc4c(F)c([C@]5(C)CS(=O)(=O)N(C)C(=N)N5)sc34)cc2)CC1` [Example 95] are 2030 nM and 9760 nM.
The corresponding values for `CN1C(=N)N[C@](C)(c2sc3c(-c4ccc(C5CC5)nc4)cccc3c2F)CS1(=O)=O` [Example 96] are 9520 nM and 327 nM.
The corresponding values for `CN1C(=N)N[C@](C)(c2sc3c(-c4cnc(-n5cccn5)nc4)nccc3c2Cl)CS1(=O)=O` [Example 97] are 64 nM and 61.2 nM.
For `CN1C(=N)N[C@](C)(c2sc3c(-c4ccc(-c5cc(C(F)(F)F)n[nH]5)cc4)nccc3c2Cl)CS1(=O)=O` [Example 98], the Ki at human autoBACE-2 was 6.7 nM; in experiment [1], 425 nM.
For `CN1C(=N)N[C@](C)(c2sc3c(-c4ccc(-n5nccn5)cc4)nccc3c2Cl)CS1(=O)=O` [Example 99], the Ki was 855 nM at human autoBACE-2 and 224 nM in experiment [1].
In the same order, the values of `CN1C(=N)N[C@](C)(c2sc3c(-c4ccc(-c5ncco5)cc4)nccc3c2Cl)CS1(=O)=O` [Example 100] are 224 nM and 116 nM.
The corresponding values for `CN1C(=N)N[C@](C)(c2sc3c(-c4ccc(C5CC(=O)N5)cc4)nccc3c2Cl)CS1(=O)=O` (stereo partly drawn) [Example 101] are 116 nM and 959 nM.
The corresponding values for `CN1C(=N)N[C@](C)(c2sc3c(-c4ccc(-n5cccn5)cc4)nccc3c2Cl)CS1(=O)=O` [Example 102] are 959 nM and 29.9 nM.
`CN1C(=N)N[C@](C)(c2sc3c(-c4ccc(-n5ccnn5)cc4)nccc3c2Cl)CS1(=O)=O` [Example 104]: the Ki at human autoBACE-2 is 36 nM; in experiment [1], 86.1 nM.

(Values after patent US9416129B2, “Tricyclic substituted thiadiazine dioxide compounds as BACE inhibitors, compositions and their use” (Merck Sharp & Dohme Corp., priority 2012, dated 2016).)
